Values joined by “and” are separate entries in the source; they are usually repeats but may differ in a detail not shown here. Equal values may be shown once.
Tested on: 324938-238-R-J1-PDC complex spheroid growth, % test/control
Test: Anticancer human tumor 324938-238-R-J1-PDC patient-derived bladder carcinoma cell line growth inhibition [AhR]
Details: for viability, T/C: stronger effect = lower value
In short: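 Complex tumor spheroids co-cultured with HUVEC and human MSC stroma; AhR antagonists tested in combination with standard-of-care and investigational agents. Top concentration at or near clinical Cmax (else 10 microM), half-log dilutions; growth expressed as percent test/control.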

[1] = curve of first compound, second compound 0.1 µM
[2] = curve of first compound, second compound 0.316 µM
[3] = curve of first compound, second compound 1 µM
[4] = curve of first compound, second compound 3.16 µM
[5] = curve of first compound, second compound 10 µM
[6] = second compound 0.1 µM, first compound 0.0316 µM
[7] = second compound 0.1 µM, first compound 0.1 µM
[8] = second compound 0.1 µM, first compound 0.316 µM
[9] = second compound 0.1 µM, first compound 1 µM
[10] = second compound 0.1 µM, first compound 3.16 µM
[11] = second compound 0.1 µM, first compound 10 µM
[12] = second compound 0.316 µM, first compound 0.0316 µM
[13] = second compound 0.316 µM, first compound 0.1 µM
[14] = second compound 0.316 µM, first compound 0.316 µM
[15] = second compound 0.316 µM, first compound 1 µM
[16] = second compound 0.316 µM, first compound 3.16 µM
[17] = second compound 0.316 µM, first compound 10 µM
[18] = second compound 1 µM, first compound 0.0316 µM
[19] = second compound 1 µM, first compound 0.1 µM
[20] = second compound 1 µM, first compound 0.316 µM
[21] = second compound 1 µM, first compound 1 µM
[22] = second compound 1 µM, first compound 3.16 µM
[23] = second compound 1 µM, first compound 10 µM
[24] = second compound 3.16 µM, first compound 0.0316 µM
[25] = second compound 3.16 µM, first compound 0.1 µM
[26] = second compound 3.16 µM, first compound 0.316 µM
[27] = second compound 3.16 µM, first compound 1 µM
[28] = second compound 3.16 µM, first compound 3.16 µM
[29] = second compound 3.16 µM, first compound 10 µM
[30] = second compound 10 µM, first compound 0.0316 µM
[31] = second compound 10 µM, first compound 0.1 µM
[32] = second compound 10 µM, first compound 0.316 µM
[33] = second compound 10 µM, first compound 1 µM
[34] = second compound 10 µM, first compound 3.16 µM
[35] = second compound 10 µM, first compound 10 µM
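Also: spheroids exposed to agents for seven days before viability read.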

CCc1c2c(nc3ccc(O)cc13)-c1cc3c(c(=O)n1C2)COC(=O)[C@]3(O)CC + Cc1ccccc1N=Nc1ccc(NC(=O)c2ccnn2C)c(C)c1
IC50 [1]: 3.21 nM | IC50 [2]: 2.48 nM | IC50 [3]: 1.88 nM | IC50 [4]: 1.25 nM | IC50 [5]: 1.44 nM | viability, T/C (second compound 0.1 µM, first compound 0.000949 µM): 62.4% | viability, T/C (second compound 0.1 µM, first compound 0.003 µM): 52% | viability, T/C (second compound 0.1 µM, first compound 0.00949 µM): 18.5% | viability, T/C (second compound 0.1 µM, first compound 0.03 µM): 15.2% | viability, T/C (second compound 0.1 µM, first compound 0.0949 µM): 16.2% | viability, T/C (second compound 0.1 µM, first compound 0.3 µM): 15.5% | viability, T/C (second compound 0.316 µM, first compound 0.000949 µM): 57.4% | viability, T/C (second compound 0.316 µM, first compound 0.003 µM): 48.5% | viability, T/C (second compound 0.316 µM, first compound 0.00949 µM): 17.1% | viability, T/C (second compound 0.316 µM, first compound 0.03 µM): 16.4% | viability, T/C (second compound 0.316 µM, first compound 0.0949 µM): 14.2% | viability, T/C (second compound 0.316 µM, first compound 0.3 µM): 16.1% | viability, T/C (second compound 1 µM, first compound 0.000949 µM): 52.4% | viability, T/C (second compound 1 µM, first compound 0.003 µM): 48.4% | viability, T/C (second compound 1 µM, first compound 0.00949 µM): 17.9% | viability, T/C (second compound 1 µM, first compound 0.03 µM): 12.9% | viability, T/C (second compound 1 µM, first compound 0.0949 µM): 15.8% | viability, T/C (second compound 1 µM, first compound 0.3 µM): 15.1% | viability, T/C (second compound 3.16 µM, first compound 0.000949 µM): 50.9% | viability, T/C (second compound 3.16 µM, first compound 0.003 µM): 47.9% | viability, T/C (second compound 3.16 µM, first compound 0.00949 µM): 14.9% | viability, T/C (second compound 3.16 µM, first compound 0.03 µM): 12.8% | viability, T/C (second compound 3.16 µM, first compound 0.0949 µM): 13.8% | viability, T/C (second compound 3.16 µM, first compound 0.3 µM): 15.4% | viability, T/C (second compound 10 µM, first compound 0.000949 µM): 52.3% | viability, T/C (second compound 10 µM, first compound 0.003 µM): 46% | viability, T/C (second compound 10 µM, first compound 0.00949 µM): 19.9% | viability, T/C (second compound 10 µM, first compound 0.03 µM): 12.9% | viability, T/C (second compound 10 µM, first compound 0.0949 µM): 14% | viability, T/C (second compound 10 µM, first compound 0.3 µM): 16.2%

NS(=O)(=O)OCC1CC(n2ccc3c(NC4CCc5ccccc54)ncnc32)CC1O (stereo unspecified) + Cc1ccccc1N=Nc1ccc(NC(=O)c2ccnn2C)c(C)c1
IC50 [1]: 1360 nM | IC50 [2]: 1070 nM | IC50 [3]: 1040 nM | IC50 [4]: 875 nM | IC50 [5]: 929 nM | viability, T/C [6]: 85.5% | viability, T/C [7]: 103% | viability, T/C [8]: 79.7% | viability, T/C [9]: 59% | viability, T/C [10]: 28.9% | viability, T/C [11]: 27.7% | viability, T/C [12]: 93.2% | viability, T/C [13]: 88.8% | viability, T/C [14]: 76.1% | viability, T/C [15]: 55.4% | viability, T/C [16]: 23.4% | viability, T/C [17]: 30.1% | viability, T/C [18]: 88% | viability, T/C [19]: 83.4% | viability, T/C [20]: 82.7% | viability, T/C [21]: 50.9% | viability, T/C [22]: 26.7% | viability, T/C [23]: 35.2% | viability, T/C [24]: 79.8% | viability, T/C [25]: 72.9% | viability, T/C [26]: 73.7% | viability, T/C [27]: 46.7% | viability, T/C [28]: 22.9% | viability, T/C [29]: 32% | viability, T/C [30]: 72.7% | viability, T/C [31]: 81% | viability, T/C [32]: 74.1% | viability, T/C [33]: 48.4% | viability, T/C [34]: 35.5% | viability, T/C [35]: 35.8%

O=C(C=Cn1cnc(-c2cc(C(F)(F)F)cc(C(F)(F)F)c2)n1)NNc1cnccn1
viability, T/C (compound 0.00949 µM): 129% and 95.9% and 85.8% | viability, T/C (compound 0.03 µM): 100% and 95.8% and 75.1% | viability, T/C (compound 0.0949 µM): 71.5% and 69.7% and 47.7% | viability, T/C (compound 0.3 µM): 58.5% and 34.4% and 27% | viability, T/C (compound 0.949 µM): 45.4% and 16.9% and 15.9% | IC50 (curve of compound): 681 nM and 184 nM and 92.1 nM

Nc1ncn(C2CC(O)C(CO)O2)c(=O)n1 (stereo unspecified) + CC(CO)NC(=O)c1cc(-c2ccc(Cl)cc2)nn(-c2cnn(C)c2)c1=O
IC50 [1]: > 1000 nM | IC50 [2]: > 1000 nM | IC50 [3]: > 1000 nM | IC50 [4]: > 1000 nM | IC50 [5]: > 1000 nM | viability, T/C (second compound 0.1 µM, first compound 0.00316 µM): 98.5% | viability, T/C (second compound 0.1 µM, first compound 0.01 µM): 97.5% | viability, T/C [6]: 93.4% | viability, T/C [7]: 73.4% | viability, T/C [8]: 81.7% | viability, T/C [9]: 72.3% | viability, T/C (second compound 0.316 µM, first compound 0.00316 µM): 98.4% | viability, T/C (second compound 0.316 µM, first compound 0.01 µM): 102% | viability, T/C [12]: 97.5% | viability, T/C [13]: 82.9% | viability, T/C [14]: 80.2% | viability, T/C [15]: 64.8% | viability, T/C (second compound 1 µM, first compound 0.00316 µM): 85.9% | viability, T/C (second compound 1 µM, first compound 0.01 µM): 91.3% | viability, T/C [18]: 82.8% | viability, T/C [19]: 72.2% | viability, T/C [20]: 68.3% | viability, T/C [21]: 61.5% | viability, T/C (second compound 3.16 µM, first compound 0.00316 µM): 72.4% | viability, T/C (second compound 3.16 µM, first compound 0.01 µM): 72.5% | viability, T/C [24]: 64.1% | viability, T/C [25]: 60.4% | viability, T/C [26]: 64.4% | viability, T/C [27]: 57.6% | viability, T/C (second compound 10 µM, first compound 0.00316 µM): 61.4% | viability, T/C (second compound 10 µM, first compound 0.01 µM): 67.9% | viability, T/C [30]: 65.8% | viability, T/C [31]: 55.9% | viability, T/C [32]: 58.3% | viability, T/C [33]: 57.8%

O=C(c1cc(Cc2n[nH]c(=O)c3ccccc23)ccc1F)N1CCN(C(=O)C2CC2)CC1 + Cc1ccccc1N=Nc1ccc(NC(=O)c2ccnn2C)c(C)c1
IC50 [1]: > 10000 nM | IC50 [2]: > 10000 nM | IC50 [3]: > 10000 nM | IC50 [4]: > 10000 nM | IC50 [5]: > 10000 nM | viability, T/C [6]: 98% | viability, T/C [7]: 105% | viability, T/C [8]: 101% | viability, T/C [9]: 103% | viability, T/C [10]: 87.6% | viability, T/C [11]: 75.5% | viability, T/C [12]: 99.4% | viability, T/C [13]: 99.8% | viability, T/C [14]: 91.7% | viability, T/C [15]: 92.1% | viability, T/C [16]: 89.8% | viability, T/C [17]: 68.5% | viability, T/C [18]: 94.4% | viability, T/C [19]: 100% | viability, T/C [20]: 95.5% | viability, T/C [21]: 90.6% | viability, T/C [22]: 78.7% | viability, T/C [23]: 72.3% | viability, T/C [24]: 84.5% | viability, T/C [25]: 79% | viability, T/C [26]: 87.3% | viability, T/C [27]: 84.5% | viability, T/C [28]: 74.4% | viability, T/C [29]: 65.2% | viability, T/C [30]: 84.6% | viability, T/C [31]: 83.4% | viability, T/C [32]: 81.2% | viability, T/C [33]: 85.1% | viability, T/C [34]: 72.4% | viability, T/C [35]: 65.9%

CC(C)c1c(-c2ccccc2)nc2c(C#N)c[nH]n2c1=O + Cc1cncc(-c2nc(NCCc3c[nH]c4ccccc34)c3ncn(C(C)C)c3n2)c1
IC50 [1]: > 10000 nM | IC50 [2]: > 10000 nM | IC50 [3]: > 10000 nM | IC50 [4]: > 10000 nM | IC50 [5]: < 31.6 nM | viability, T/C [6]: 127% | viability, T/C [7]: 85.5% | viability, T/C [8]: 95.3% | viability, T/C [9]: 63.9% | viability, T/C [10]: 69.6% | viability, T/C [11]: 146% | viability, T/C [12]: 124% | viability, T/C [13]: 129% | viability, T/C [14]: 89.1% | viability, T/C [15]: 102% | viability, T/C [16]: 113% | viability, T/C [17]: 96.4% | viability, T/C [18]: 119% | viability, T/C [19]: 85.3% | viability, T/C [20]: 83.5% | viability, T/C [21]: 90.8% | viability, T/C [22]: 130% | viability, T/C [23]: 102% | viability, T/C [24]: 101% | viability, T/C [25]: 68.8% | viability, T/C [26]: 76.8% | viability, T/C [27]: 63.8% | viability, T/C [28]: 75.8% | viability, T/C [29]: 102% | viability, T/C [30]: 2.26% | viability, T/C [31]: 3.22% | viability, T/C [32]: 2.43% | viability, T/C [33]: 3.77% | viability, T/C [34]: 3.8% | viability, T/C [35]: 1.68%
